{"source": "paper PMC10470178", "about": "“Long-acting lenacapavir protects macaques against intravenous challenge with simian-tropic HIV” (eBioMedicine, 2023)", "key": {"stHIV-A19": {"system": "stHIV-A19", "experiment": "PrEP protection from high-dose intravenous stHIV-A19 challenge in pigtail macaques", "type": "in vivo, pigtail macaques (Macaca nemestrina)", "description": "Sixteen male, purpose-bred pigtail macaques (Macaca nemestrina; ages 4.6–8.5 years at the time of study initiation) were housed at NIH-Bethesda (Supplementary Table S1). All study animals received enrofloxacin (10 mg/kg, administered orally, once per day for 10 days), paromomycin (25 mg/kg, administered orally, twice daily for 7–10 days), and fenbendazole (50 mg/kg administered orally, once per day for 5 days) two weeks to 43 months prior to study initiation. Lenacapavir or drug vehicle (sterile, preservative-free 57.5% w/v polyethylene glycol 300 in water) doses were administered to sedated animals via SC injection into the scapular region such that no more than 2 ml of solution was injected into a single SC site. Animals in the LEN pharmacokinetic evaluation study (N = 6) each received two doses of LEN, both at 15 mg/kg (N = 3) or at 50 mg/kg (N = 3), 6 weeks apart. Animals in the virus challenge experiment each received a single dose of LEN at 25 mg/kg (N = 3, LEN PrEP group) or drug vehicle (N = 4, vehicle control group) 30 days prior to stHIV-A19 challenge, or a cART regimen consisting of tenofovir disoproxil fumarate (TDF), emtricitabine (FTC), and dolutegravir (DTG) (N = 3, TDF/FTC/DTG group), coformulated and administered as previously described[29]^,[30] for 7 days beginning 3 days prior to stHIV-A19 challenge (Supplementary Figure S1). Hair was clipped and skin marked at LEN and vehicle injection sites to allow for subsequent visual and manual assessment and scoring of potential ISRs by non-blinded veterinary care staff. Complete blood counts (CBC) and serum chemistries were monitored prior to and at 2- to 4-week intervals after LEN administration for at least one year. Following the first dose of LEN in the PK study, one animal in the 50-mg/kg dosing group received 7 consecutive days of daily ketoprofen (2 mg/kg) administered intramuscularly for ISR analgesia at veterinary discretion. For the second dose of LEN in the PK study, all animals in the 50-mg/kg dosing group received 5–7 consecutive days of twice daily oral carprofen (2 mg/kg) analgesia administered prophylactically starting on the day of LEN dosing. In the IV challenge PrEP study, all LEN and vehicle control animals received 3–5 consecutive days of twice daily oral carprofen (2 mg/kg) analgesia administered prophylactically starting on the day of injection. For virus challenge, PrEP study animals each received 1 × 10^5 infectious units of stHIV-A19 injected intravenously. After LEN washout, LEN PrEP group animals received a single 50-mg/kg dose of rhesusized depleting anti-CD8α antibody (MT807R1, RRID: AB_2716320, NIH Nonhuman Primate Reagent Resource), administered SC to anesthetized animals.\nSimian-tropic HIV was isolated from clarified PTM plasma by centrifugation (21,000×g for 1 h), and the resultant pellet was extracted as described.[31] Pigtail macaque PBMCs were subjected to nucleic acid extraction essentially as previously described for tissues.[32] HIV gag DNA and RNA copies were assessed using a multiplexed qPCR assay, as previously described.[33] Plasma stHIV-A19 vRNA levels are reported as copies/ml of plasma. PBMC-associated stHIV-A19 vDNA levels are reported as copies/10^6 cell equivalents, based on 2 copies of the CCR5 gene per diploid cellular genome.[34]\nPlasma specimens collected from all 10 virus challenge animals prior to and at 8 weeks after stHIV-A19 challenge were evaluated for the presence of antibodies specific for HIV-1 by Western blot analysis using the GS HIV-1 Western Blot kit (Bio-Rad, cat #32508) according to the manufacturer’s instructions.\nStatistical analyses were performed using R v4.1.1 ((R Core Team, 2021). R: A language and environment for statistical computing. R Foundation for Statistical Computing, Vienna, Austria. URL https://www.R-project.org/). […]"}, "SHIVs": {"system": "SHIVs", "set-up": "method as in PMID 34875675", "conditions": "SHIVs contain SIV CA derived from SIVmac239; cited from earlier work"}, "[1]": {"conditions": "all 3 LEN PrEP animals, 34 days of monitoring after anti-CD8α antibody at 419 days post-challenge"}}, "data": [{"molecule": "CC(C)(C#Cc1ccc(-c2ccc(Cl)c3c(NS(C)(=O)=O)nn(CC(F)(F)F)c23)c([C@H](Cc2cc(F)cc(F)c2)NC(=O)Cn2nc(C(F)(F)F)c3c2C(F)(F)[C@@H]2C[C@H]32)n1)S(C)(=O)=O", "note": "[LEN, Lenacapavir]", "values": [{"measurement": "PBMC vDNA following CD8 depletion", "setting": "stHIV-A19; [1]", "result": "6.2–11.0 vDNA copies/10^6 PBMC"}, {"measurement": "plasma vRNA following CD8 depletion", "setting": "stHIV-A19; [1]", "result": "< 2.8", "unit": "vRNA copies/ml plasma"}, {"measurement": "cell-associated viral DNA (CA-vDNA) in PBMC after stHIV-A19 challenge", "setting": "stHIV-A19; all animals of the group, any time point", "result": "vDNA was not detected at any time point"}, {"measurement": "plasma vRNA after stHIV-A19 challenge", "setting": "stHIV-A19; assay threshold 2.8 vRNA copies/ml, LEN ∼370 days follow-up, TDF/FTC/DTG through 120 days post-challenge", "result": "no plasma vRNA detected at any time point"}, {"measurement": "infection rates compared with vehicle control group", "setting": "stHIV-A19; each p < 0.03, Fisher's exact test", "result": "significantly lower than in the vehicle control group"}, {"measurement": "HIV-1 Western blot serology", "setting": "stHIV-A19; plasma, 8 weeks after stHIV-A19 challenge, all animals", "result": "remained seronegative"}, {"measurement": "protection from infection after stHIV-A19 challenge", "setting": "stHIV-A19; single IV challenge 1 × 10^5 i.u., LEN 25 mg/kg SC 30 days before (N = 3), 3-drug regimen daily SC for 7 days from 3 days before (N = 3)", "result": "protected PTMs from infection"}, {"measurement": "reduced sensitivity of SHIVs compared with HIV-1", "setting": "SHIVs", "result": "5–8 fold"}]}]}
